Each block holds one molecule with its values, some of them ahead of it.
Experiments:
CB1R (pcDNA3.1-mCB1) = molecular target: T1, CB1R (pcDNA3.1-mCB1) (Mus musculus, UniProt P47746); test: GloSensor cAMP assay in CB1R-transfected HEK293T/17 cells; format: cell-based; settings: for cAMP concentrations in the absence of agonist (AEA): HEK293T/17 cells transfected with mCB1, forskolin 1 μM, FIG. 2
T1 construct: expressed in transfected cells; host or cells: HEK293T/17 (ATCC), transient transfection with FuGENE HD
T1 sequence (P47746 whole entry): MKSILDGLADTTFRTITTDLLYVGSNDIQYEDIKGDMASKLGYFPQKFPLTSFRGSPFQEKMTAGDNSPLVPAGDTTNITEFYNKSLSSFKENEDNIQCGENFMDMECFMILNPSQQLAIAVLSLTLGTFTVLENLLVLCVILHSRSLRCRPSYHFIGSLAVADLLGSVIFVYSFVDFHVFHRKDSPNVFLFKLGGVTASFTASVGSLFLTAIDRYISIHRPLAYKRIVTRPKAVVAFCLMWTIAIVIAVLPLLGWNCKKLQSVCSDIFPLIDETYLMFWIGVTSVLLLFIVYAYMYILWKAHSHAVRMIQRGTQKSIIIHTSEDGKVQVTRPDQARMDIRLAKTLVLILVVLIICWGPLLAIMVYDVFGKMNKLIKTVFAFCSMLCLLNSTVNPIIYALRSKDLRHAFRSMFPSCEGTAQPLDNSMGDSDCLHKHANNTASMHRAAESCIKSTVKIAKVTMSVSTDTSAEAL
Protocol: HEK293T/17 (ATCC) cells were cultured in DMEM 10% FCS, then seeded at 30000 cells/well in 96-well plates. After 24 h, the cells were subjected to transient transfection by FuGENE HD (Promega) by pcDNA3.1-mCB1 (50 ng) and pGlo (100 ng) plasmids with or without pertussis toxin (PTX). For the control assays, the cells were transfected with empty pcDNA3 (EV) and pGlo vectors with or without PTX. At 48 h (24 h post-transfection), the cells were loaded for 2 h with 2% GloReagent in CO2-independent medium with 10% FCS (80 μL/well).
The cells were then treated by adding, at t=0, 10 μL/well of Forskolin (FSK) 1 μM final, in order to increase the basal cAMP concentration. The kinetics of appearance of cAMP was monitored for 10 minutes. At t=10, the molecules to be tested were added and the cAMP variations measured for 20 minutes. The light signal was measured in RLU and is expressed as % response relative to the signal read at t=10 min (FSK1 μM). Sigmoidal curves were obtained by measurement at t=10 min after addition of the molecule to be tested (thus t=20 min total) of the percentage of light signal as a function of molecule concentration. The 4PL regression was carried out using the Sigma Plot software and made it possible to obtain an EC50 (1 experiment, n=3).

C57BL/6 mice = test: Gastrointestinal transit (charcoal), anandamide-induced inhibition; format: in vivo, mouse; settings: agonist alone, 10 mg/kg i.p.
Protocol: Transit through the stomach and the intestine was measured via oral administration of vegetable charcoal suspended in gum arabic used herein as nonabsorbable marker. Briefly, following a short fast, C57BL/6 mice were injected intraperitoneally (i.p.) with anandamide (10 mg/kg) in the presence or absence of the molecule of interest JM-00.266 (i.e., compound IA) (10 mg/kg) before oral charcoal administration. 25 minutes later, the animals were sacrificed by cervical dislocation in order to entirely remove the intestine. The distance between the beginning of the pylorus and the location of the charcoal bolus was measured.

[1] = system: CB1R expression in liver explants of ob/ob mice; test: Liver explant culture, CB1R gene expression (RT-PCR); format: cell-based, mouse; settings: liver explants of ob/ob mice treated 21 h, FIG. 1
Protocol: The liver of the mice was perfused in situ, under sodium pentobarbital anaesthesia (50 mg/kg), with Hank's medium (pH 7.4) saturated with oxygen. Next, the liver was sectioned using a Brendel/Vitron slicer (Tucson, Ariz., USA) in the same medium. The liver sections (about 200 μm) were then incubated 21 h in William's medium E (WME) oxygenated and supplemented with deactivated foetal calf serum (10%) and antibiotic/antifungal cocktail (1%) under controlled atmosphere (5% CO2), to which is added either the antagonist to be tested or vehicle.
Total messenger RNA (mRNA) extraction was carried out with Tri Reagent (Euromedex, France) and consecutive synthesis of complementary DNA (cDNA) was carried out from 1 μg of mRNA with the Bio-Rad iScripttm Reverse Transcription super mix kit (Bio-Rad, France).
Gene expression was evaluated by semi-quantitative real-time reverse transcription-polymerase chain reaction (RT-PCR). The primers used were designed using the Primer3Plus software (http://www.bioinformatics.nl/cgi-bin/primer3plus/primer3plus.cgi) and were synthesized by MWG-Biotech (TATA box-binding protein: Sense […], antisense […]; CB1R: Sense […], antisense aaccccacccagtttgaac). Semi-quantification of gene expression was obtained by taking into account the efficacy of each PCR and after standardization with the reporter gene, TATA box-binding protein.

wild-type C57BL/6 mice = test: Acute oral glucose tolerance test (OGTT) in wild-type mice; format: in vivo, mouse; settings: 10 mg/kg i.p. 10 min before 2 g/kg oral glucose load, wild-type C57Bl/6J mice
Protocol: (§1) In order to evaluate the short-term effects of the rimonabant-like molecules, as well as their selectivity for CB1R, wild-type C57BL/6 mice and CB1R −/− mice underwent an oral glucose tolerance test (OGTT at 2 g/kg) 10 min after i.p. injection of vehicle or of JM-02.003 or JM-00.266 (i.e., compound IA) (10 mg/kg). Blood glucose was measured at times t=0, t=15 min, t=30 min, t=45 min, t=60 min, t=90 min, and t=120 min post-oral. glucose administration using a Contour®TS blood glucose monitor (ref. 81574201, Bayer HealthCare) and reactive strips (ref. 81574274, Bayer HealthCare).

CB1R -/- mice = test: Acute oral glucose tolerance test (OGTT) in CB1R KO mice; format: in vivo, mouse; settings: 10 mg/kg i.p., OGTT 2 g/kg
Protocol: as §1

obese C57BL/6 mice [2] = test: Plasma liver markers after 30-day chronic treatment; format: in vivo, mouse
Source text: (§2) In order to determine the long-term effects of the molecules of interest, C57BL/6 mice made obese by means of a high-sucrose, high-fat diet (HSHF: 30% crude fat, 33.5% carbohydrates; ref. E15126-34; ref. E15126-34, SSNIFF, Soest, Germany) for 20 weeks. These mice then received daily an i.p. injection of rimonabant, JM-00.266 (i.e., compound IA) or vehicle for a period of 30 days. In parallel, weight and food intake were monitored every two days following the beginning of the treatment.
Total cholesterol, triglycerides and hepatic markers were assayed by a Dimension Vista Intelligent Lab System (Siemens, Saint-Denis, France) using suitable reagents.

obese C57BL/6 mice [3] = test: ITT before and after 30-day chronic treatment; format: in vivo, mouse; settings: obese mice after 30 days of treatment, 10 mg/kg
Protocol: (§3) In order to evaluate the long-term effects of the treatment on blood glucose control, glucose tolerance (OGTT) and insulin sensitivity (ITT) were evaluated pre- and post-treatment. Thus, for the OGTT the mice were force-fed glucose (2 g/kg), and for the ITT the mice received an i.p. injection of insulin (0.5 IU/kg). In both cases, blood glucose was measured at times t=0, t=15 min, t=30 min, t=45 min, t=60 min, t=90 min, and t=120 min post-glucose ingestion using a Contour®TS blood glucose monitor (ref. 81574201, Bayer HealthCare) and reactive strips (ref. 81574274, Bayer HealthCare).

[4] = system: CB1R expression in liver explants of ob/ob mice; settings: previous study (Jourdan et al. 2012); cited from earlier work
obese C57BL/6 mice [5] = test: Food intake, body weight and body composition (EchoMRI) during 30-day chronic treatment; format: in vivo, mouse
Source text: as §2
The long-term effect of the treatment on body composition was measured using an EchoMRI™ scanner allowing non-invasive analysis of fat mass, lean mass and body fluid composition by nuclear magnetic resonance (NMR) on the live animal without anaesthesia.

obese C57BL/6 mice [6] = test: OGTT before and after 30-day chronic treatment; format: in vivo, mouse; settings: obese mice after 30 days of treatment, 10 mg/kg
Protocol: as §3

obese C57BL/6 mice [7] = test: Open-field test after 30-day chronic treatment; format: in vivo, mouse; settings: end of 30-day treatment, 10 mg/kg i.p.
Protocol: Locomotor activity of the mice was measured at the conclusion of the chronic treatment with rimonabant or molecule JM-00.266 (i.e., compound IA) by an infrared monitoring system. To that end, the animals were placed individually in 43×43 cm plexiglass boxes (MED associates) for 20 min. Two series of 16 pulsed infrared beams were spaced 2.5 cm apart on opposite walls to record ambulatory X-Y movements at 100 ms resolution. The centre was defined as a central 32×32 cm square. In addition to locomotor activity information, this test makes it possible to predict anxiolytic activity in response to novelty or to an anxiogenic environment. The variables measured in the open field are total ambulatory activity (in cm), the number of entries and the time spent in the central area as well as the distance traversed in the centre divided by the total distance traversed.

[8] = obese mice, 10 mg/kg i.p. daily, 30 days

SMILES: CCCCC/C=C\C/C=C\C/C=C\C/C=C\CCCC(=O)NCCO [AEA, reference compound]
intracellular cAMP concentration on activation of the receptors by agonist (CB1R (pcDNA3.1-mCB1); data not shown): reduction
gastrointestinal transit (C57BL/6 mice): strongly inhibited

SMILES: CSc1ccc(C2C(N3C(=O)c4ccccc4C3=O)C(=O)N2c2ccccc2)cc1 (stereo not drawn) [JM-00.242]
hepatic CB1R expression [1]: not selected for the remainder of the study

SMILES: CSc1ccc(C2C(N3C(=O)c4ccccc4C3=O)C(=O)N2c2ccc(Cl)cc2)cc1 (stereo not drawn) [JM-00.246]
hepatic CB1R expression [1]: not selected for the remainder of the study

Second part, led by results:

cAMP concentrations in the absence of agonist (AEA) (CB1R (pcDNA3.1-mCB1)): no effect
SMILES: O=C1C(N2C(=O)c3ccccc3C2=O)C(c2ccncc2)N1Cc1cccc(Cl)c1 (stereo not drawn) [JM-01.1006]
hepatic CB1R expression [1]: significant decrease

cAMP concentrations in the absence of agonist (AEA) (CB1R (pcDNA3.1-mCB1)): increased
SMILES: COc1cc(OC)cc(N2C(=O)C(N3C(=O)c4ccccc4C3=O)C2c2ccncc2)c1 (stereo not drawn) [JM-02.003]
glucose tolerance compared with vehicle (wild-type C57BL/6 mice): improves glucose tolerance
hepatic CB1R expression [1]: significant decrease
improvement in glucose tolerance in CB1R KO mice (CB1R -/- mice): persists

ALPI plasma concentration (obese C57BL/6 mice [2]; [8]): 37.4 ± 2.4
Gamma GT plasma concentration (obese C57BL/6 mice [2]; [8]): <3 U/L
Total bilirubin plasma concentration (obese C57BL/6 mice [2]; [8]): <2 µmol/L
motor activity (obese C57BL/6 mice [7]): increases motor activity
time spent in the centre of the arena / anxiety state (obese C57BL/6 mice [7]): not altered
SMILES: Cc1c(C(=O)NN2CCCCC2)nn(-c2ccc(Cl)cc2Cl)c1-c1ccc(Cl)cc1 [SR141716, reference compound]
ALT and AST concentrations in plasma of obese mice versus control (obese C57BL/6 mice [2]; 30-day chronic treatment): significantly decreased
liver damage markers compared with the control (obese C57BL/6 mice [2]; 30-day chronic treatment): does not cause an increase
ALT plasma concentration (obese C57BL/6 mice [2]; [8]): 21.6 ± 2.3 U/L
AST plasma concentration (obese C57BL/6 mice [2]; [8]): 46.4 ± 3.1 U/L
insulin resistance (ITT) (obese C57BL/6 mice [3]): improved
CB1R expression in liver explants [4]: reduced
fat mass versus control mice (obese C57BL/6 mice [5]; end of 30-day treatment, NMR): lower fat mass
lean mass versus control mice (obese C57BL/6 mice [5]; end of 30-day treatment, NMR): higher lean mass
body weight relative to control mice (obese C57BL/6 mice [5]; [8]): lost weight
food intake compared with control mice (obese C57BL/6 mice [5]; [8]): transiently decrease their food intake
basal blood glucose (obese C57BL/6 mice [6]): significant improvement
glucose tolerance (OGTT 2 g/kg) (obese C57BL/6 mice [6]): significant improvement

Reference: patent US10457665B2, “1,4-di-(4-methylthiophenyl)-3-phtaloylazetidine-2-one and the derivatives thereof” (Universite De Nantes, priority 2015, dated 2019)
